Measured values as given in patent publication US8278074B2, “L-glutamic acid-producing microorganism and a method for producing L-glutamic acid” (priority 2004, dated 2012).

Columns and labels:
Type in all cases: cell-based, Corynebacterium glutamicum
ATCC13869-A1 strain = assay: Resistance to 4-fluoroglutamic acid in a liquid medium; settings: minimum liquid medium, 1.25 mM to 20 mM 4-fluoroglutamic acid, 31.5° C., culture without 4-fluoroglutamic acid set to 1 (FIG. 7)
Experimental: (§1) 4-fluoroglutamic acid was added into the minimum liquid medium having the same composition as described in Example 4 but not containing agar to the final concentration of 1.25 mM, 2.5 mM, 5 mM, 10 mM, and 20 mM, respectively. Each of the ATCC13869 strain, ATCC13869ΔyggB strain, ATCC13869-L30 strain, and ATCC13869-A1 strain was spread over a CM-Dex plate and cultured at 31.5° C. overnight. Then, cells were collected, and after washing with the sterilized 0.85% NaCl solution, inoculated into the liquid medium and cultured at 31.5° C. with shaking. When the OD660 of each strain cultured without 4-fluoroglutamic acid reached 1.0, the culture was terminated and the obtained culture solution was diluted appropriately and spread over the CM-Dex plate overnight. The number of colonies which appeared were calculated and designated as a viable cell number.

ATCC13869-L30 strain = assay: as above; settings: minimum liquid medium, 1.25 mM to 20 mM 4-fluoroglutamic acid, 31.5° C., culture without 4-fluoroglutamic acid set to 1 (FIG. 7)
Experimental: as §1

[1] = test system: mutant-type yggB gene-introduced strains (ATCC13869-L30 strain, ATCC13869-A1 strain); assay: Resistance to 4-fluoroglutamic acid on a solid medium; settings: minimum plate medium, 7.5 mM 4-fluoroglutamic acid, 31.5° C., compared with wild-type ATCC13869 strain (FIG. 6)
Experimental: 4-fluoroglutamic acid solution which was adjusted to pH6.7 with NaOH and sterilized with filtration was added to the minimum medium described in Example 4 so that the final concentration of 4-fluoroglutamic acid was 7.5 mM. Each of the ATCC13869 strain, ATCC13869-L30 strain, and ATCC13869-A1 strain was spread over the CM-Dex plate and cultured overnight.

N[C@@H](CC(F)C(=O)O)C(=O)O (stereo partly drawn) [4-fluoroglutamic acid]
sensitivity to 4-fluoroglutamic acid (relative viable cell number) (ATCC13869-A1 strain): decreased sensitivity | sensitivity to 4-fluoroglutamic acid (relative viable cell number) (ATCC13869-L30 strain): decreased sensitivity | growth in the presence of 4-fluoroglutamic acid [1]: grow faster than wild-type ATCC13869 strain
